Laboratory results from patent US7947666B2, “2-methylene-(20S,25S)-19,26-dinor-vitamin D analogs” (Wisconsin Alumni Research Foundation, priority 2007, dated 2011).
Read-outs that look alike come from different tables or passages of the source.

What was measured:
vitamin D-deficient rats [1] = experiment: Intestinal calcium transport, everted gut sac method; assay type: in vivo, rat; details: for intestinal calcium transport: everted gut sac
Method: (§1) Male, weanling Sprague-Dawley rats were placed on Diet 11 (0.47% Ca) diet +AEK oil for one week followed by Diet 11 (0.02% Ca) +AEK oil for 3 weeks. The rats were then switched to a diet containing 0.47% Ca for one week followed by two weeks on a diet containing 0.02% Ca. Dose administration began during the last week on 0.02% calcium diet. Four consecutive ip doses were given approximately 24 hours apart. Twenty-four hours after the last dose, blood was collected from the severed neck and the concentration of serum calcium determined as a measure of bone calcium mobilization. The first 10 cm of the intestine was also collected for intestinal calcium transport analysis using the everted gut sac method.
Intestinal calcium transport was evaluated in the same groups of animals using the everted gut sac method (FIGS. 5A and 5B).

HL-60 cells = experiment: HL-60 differentiation (nitro blue tetrazolium reduction); assay type: cell-based, human; details: 4 days, NBT reduction, FIG. 2, read-out: EC50, HL-60 cell differentiation
Method: The study drugs were dissolved in ethanol and the concentrations determined using UV spectrophotometry. Serial dilutions were prepared so that a range of drug concentrations could be tested without changing the final concentration of ethanol (≦0.2%) present in the cell cultures.
Human promyelocytic leukemia (HL60) cells were grown in RPMI-1640 medium containing 10% fetal bovine serum. The cells were incubated at 37° C. in the presence of 5% CO2.
HL60 cells were plated at 1.2×10^5 cells/ml. Eighteen hours after plating, cells in duplicate were treated with drug. Four days later, the cells were harvested and a nitro blue tetrazolium reduction assay was performed (Collins et al., 1979; J. Exp. Med. 149:969-974). The percentage of differentiated cells was determined by counting a total of 200 cells and recording the number that contained intracellular black-blue formazan deposits. Verification of differentiation to monocytic cells was determined by measuring phagocytic activity (data not shown).

vitamin D-deficient rats [2] = experiment: Bone calcium mobilization (serum calcium); assay type: in vivo, rat; details: for bone calcium mobilization (serum calcium levels): all dosages / overall, FIGS. 4A and 4B; for bone calcium mobilization (serum calcium): rats on low calcium diet (0.02%)
Method: as §1
Calcium mobilization from bone and intestinal calcium absorption in vitamin D-deficient animals.

[3] = tested on: 24-hydroxylase (24Ohase) gene promoter; experiment: In vitro transcription assay, luciferase reporter in ROS 17/2.8 (bone) cells; assay type: cell-based; details: ROS 17/2.8 cells, 24-hydroxylase promoter luciferase, 16 h; FIG. 3; read-out: EC50, transcriptional activity in bone cells
Method: Transcription activity was measured in ROS 17/2.8 (bone) cells that were stably transfected with a 24-hydroxylase (24Ohase) gene promoter upstream of a luciferase reporter gene (Arbour et al., 1998). Cells were given a range of doses. Sixteen hours after dosing the cells were harvested and luciferase activities were measured using a luminometer.
RLU=relative luciferase units.

[4] = 260 pmol/day ip for 4 consecutive days
[5] = 7020 pmol/day ip for 4 consecutive days

Compound | intestinal calcium transport (vitamin D-deficient rats [1]; [4]) | EC50 (HL-60 cells) [pM] | bone calcium mobilization (serum calcium levels) (vitamin D-deficient rats [2]) | intestinal calcium transport (vitamin D-deficient rats [1]; [5]) | intestinal calcium transport activity compared to 1,25(OH)2D3 (vitamin D-deficient rats [1]; overall, FIGS. 5A and 5B, two batches of rats) | EC50 (HL-60 cells; Homo sapiens, 96 h) [pM] | EC50 [3] [pM] | bone calcium mobilization (serum calcium) (vitamin D-deficient rats [2]; [4]) | bone calcium mobilization (serum calcium) (vitamin D-deficient rats [2]; [5]) | times less potent than the native hormone in mobilizing bone calcium store (vitamin D-deficient rats [2]; rats, compared to 1,25(OH)2D3, same increase in serum calcium)
C=C1/C(=C\C=C2/CCC[C@]3(C)[C@@H]([C@H](C)CCCC(C)(C)O)CC[C@@H]23)C[C@@H](O)C[C@@H]1O [1,25(OH)2D3, 1α,25-dihydroxyvitamin D3, reference compound] | promotes a significant increase | 2000 | increased serum calcium levels at all dosages | – | – | – | – | – | – | –
C=C1[C@H](O)CC(=C/C=C2\CCC[C@@]3(C)C2CC[C@@H]3[C@@H](C)CCC[C@H](C)O)C[C@H]1O (stereo partly drawn) [A4, 2-methylene-(20S,25S)-19,26-dinor-1α,25-dihydroxyvitamin D3] | promotes intestinal calcium transport only slightly | – | very little bone calcium mobilization activity | significant intestinal calcium transport activity | very little activity | 500 | 30 | did not result in mobilization of bone calcium | without any substantial effect | approximately 100 times
